Experiments:
Saccharomyces cerevisiae [1] = assay: DNA damaging activity against DNA repair-deficient Saccharomyces cerevisiae RS 322YK (rad 52Y) mutant assessed as drug level required to produce 12 mm zone of inhibition after 48 hrs; type: functional
Saccharomyces cerevisiae [2] = assay: DNA damaging activity against DNA […] Saccharomyces cerevisiae RS 188N (RAD+) mutant assessed as drug level required to produce 12 mm zone of inhibition after 48 hrs; type: functional

Question: With C=C[C@@]1(C)C[C@@H]2OC(=O)C3=C(CCCC3(C)C)[C@@]2(C)[C@H](C(=O)O)C1 [CANDIDALACTONE] as the compound, how does the Activity (Saccharomyces cerevisiae [1]) read?
Answer: 87 µg/mL

Question: And the Activity (Saccharomyces cerevisiae [2])?
Answer: >200 µg/mL
